Measurements: PubChem BioAssay (NCI)
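1) Cells in 96-well plates. 2) Compound, 48 h, 5 concentrations. 3) Linear interpolation between surrounding doses. 4) Unreached endpoint = highest concentration. TGI is the concentration that stops growth completely.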

Key:
Assay in all cases: inhibition of tumour cell growth, NCI panel, 48 h
OVCAR-8 ovarian = test system: OVCAR-8 ovarian
SF-268 CNS = test system: SF-268 CNS
PC-3 prostate = test system: PC-3 prostate
HCT-15 colon = test system: HCT-15 colon
MDA-N = test system: MDA-N
LOX IMVI melanoma = test system: LOX IMVI melanoma
SK-MEL-5 melanoma = test system: SK-MEL-5 melanoma
ACHN renal = test system: ACHN renal
SNB-75 CNS = test system: SNB-75 CNS
MOLT-4 leukemia = test system: MOLT-4 leukemia
OVCAR-3 ovarian = test system: OVCAR-3 ovarian
CAKI-1 renal = test system: CAKI-1 renal
HS 578T breast = test system: HS 578T breast
NCI-H460 lung = test system: NCI-H460 lung
UACC-257 melanoma = test system: UACC-257 melanoma
MDA-MB-435 = test system: MDA-MB-435
OVCAR-5 ovarian = test system: OVCAR-5 ovarian
NCI-H522 lung = test system: NCI-H522 lung
T-47D breast = test system: T-47D breast
CCRF-CEM leukemia = test system: CCRF-CEM leukemia
K-562 leukemia = test system: K-562 leukemia
SK-MEL-2 melanoma = test system: SK-MEL-2 melanoma
MCF7 breast = test system: MCF7 breast
HT29 colon = test system: HT29 colon
SN12C renal = test system: SN12C renal
HL-60(TB) leukemia = test system: HL-60(TB) leukemia
HCT-116 colon = test system: HCT-116 colon
HCC-2998 colon = test system: HCC-2998 colon
SF-539 CNS = test system: SF-539 CNS
OVCAR-4 ovarian = test system: OVCAR-4 ovarian
SK-OV-3 ovarian = test system: SK-OV-3 ovarian
786-0 renal = test system: 786-0 renal
RXF 393 renal = test system: RXF 393 renal
UO-31 renal = test system: UO-31 renal
SW-620 colon = test system: SW-620 colon
BT-549 breast = test system: BT-549 breast
DU-145 prostate = test system: DU-145 prostate
MDA-MB-231 breast = test system: MDA-MB-231 breast
NCI/ADR-RES ovarian = test system: NCI/ADR-RES ovarian
IGROV1 ovarian = test system: IGROV1 ovarian
SR leukemia = test system: SR leukemia
A549 NSCLC = test system: A549 NSCLC
UACC-62 melanoma = test system: UACC-62 melanoma
KM12 colon = test system: KM12 colon
MALME-3M melanoma = test system: MALME-3M melanoma
SF-295 CNS = test system: SF-295 CNS
M14 melanoma = test system: M14 melanoma
EKVX NSCLC = test system: EKVX NSCLC
TK-10 renal = test system: TK-10 renal
HOP-62 NSCLC = test system: HOP-62 NSCLC
COLO 205 colon = test system: COLO 205 colon
SK-MEL-28 melanoma = test system: SK-MEL-28 melanoma
NCI-H23 lung = test system: NCI-H23 lung
RPMI-8226 leukemia = test system: RPMI-8226 leukemia
NCI-H226 lung = test system: NCI-H226 lung
SNB-19 CNS = test system: SNB-19 CNS

## CC(=O)n1nc(-c2ccc3ccccc3c2)nc1C
OVCAR-8 ovarian
  TGI: > 100 µM
SF-268 CNS
  TGI: > 100 µM
PC-3 prostate
  TGI: > 100 µM
HCT-15 colon
  TGI: > 100 µM
MDA-N
  TGI: > 100 µM
LOX IMVI melanoma
  TGI: > 100 µM
SK-MEL-5 melanoma
  TGI: > 100 µM
ACHN renal
  TGI: > 100 µM
SNB-75 CNS
  TGI: > 100 µM
MOLT-4 leukemia
  TGI: > 100 µM
OVCAR-3 ovarian
  TGI: > 100 µM
CAKI-1 renal
  TGI: > 100 µM
HS 578T breast
  TGI: > 100 µM
NCI-H460 lung
  TGI: > 100 µM
UACC-257 melanoma
  TGI: > 100 µM
MDA-MB-435
  TGI: > 100 µM
OVCAR-5 ovarian
  TGI: > 100 µM
NCI-H522 lung
  TGI: > 100 µM
T-47D breast
  TGI: > 100 µM
CCRF-CEM leukemia
  TGI: > 100 µM
K-562 leukemia
  TGI: > 100 µM
SK-MEL-2 melanoma
  TGI: > 100 µM
MCF7 breast
  TGI: > 100 µM
HT29 colon
  TGI: > 100 µM
SN12C renal
  TGI: > 100 µM
HL-60(TB) leukemia
  TGI: > 100 µM
HCT-116 colon
  TGI: > 100 µM
HCC-2998 colon
  TGI: > 100 µM
SF-539 CNS
  TGI: > 100 µM
OVCAR-4 ovarian
  TGI: > 100 µM
SK-OV-3 ovarian
  TGI: > 100 µM
786-0 renal
  TGI: > 100 µM
RXF 393 renal
  TGI: > 100 µM
UO-31 renal
  TGI: > 100 µM
SW-620 colon
  TGI: > 100 µM
BT-549 breast
  TGI: > 100 µM
DU-145 prostate
  TGI: > 100 µM
MDA-MB-231 breast
  TGI: > 100 µM
NCI/ADR-RES ovarian
  TGI: > 100 µM
IGROV1 ovarian
  TGI: > 100 µM
SR leukemia
  TGI: > 100 µM
A549 NSCLC
  TGI: > 100 µM
UACC-62 melanoma
  TGI: > 100 µM
KM12 colon
  TGI: > 100 µM
MALME-3M melanoma
  TGI: > 100 µM
SF-295 CNS
  TGI: > 100 µM
M14 melanoma
  TGI: > 100 µM
EKVX NSCLC
  TGI: > 100 µM
TK-10 renal
  TGI: > 100 µM
HOP-62 NSCLC
  TGI: > 100 µM
COLO 205 colon
  TGI: > 100 µM

## CCOC1CCN(C(=O)c2ccccc2)O1 (stereo not given)
OVCAR-8 ovarian
  TGI: > 10 µM
SF-268 CNS
  TGI: > 10 µM
PC-3 prostate
  TGI: > 10 µM
HCT-15 colon
  TGI: > 10 µM
MDA-N
  TGI: > 10 µM
LOX IMVI melanoma
  TGI: > 10 µM
SK-MEL-5 melanoma
  TGI: > 10 µM
ACHN renal
  TGI: > 10 µM
SNB-75 CNS
  TGI: > 10 µM
MOLT-4 leukemia
  TGI: > 10 µM
OVCAR-3 ovarian
  TGI: > 10 µM
CAKI-1 renal
  TGI: > 10 µM
HS 578T breast
  TGI: > 10 µM
NCI-H460 lung
  TGI: > 10 µM
UACC-257 melanoma
  TGI: > 10 µM
MDA-MB-435
  TGI: > 10 µM
OVCAR-5 ovarian
  TGI: > 10 µM
NCI-H522 lung
  TGI: > 10 µM
T-47D breast
  TGI: > 10 µM
CCRF-CEM leukemia
  TGI: > 10 µM
K-562 leukemia
  TGI: > 10 µM
SK-MEL-2 melanoma
  TGI: > 10 µM
MCF7 breast
  TGI: > 10 µM
HT29 colon
  TGI: > 10 µM
SK-MEL-28 melanoma
  TGI: > 10 µM
SN12C renal
  TGI: > 10 µM
HL-60(TB) leukemia
  TGI: > 10 µM
HCT-116 colon
  TGI: > 10 µM
HCC-2998 colon
  TGI: > 10 µM
NCI-H23 lung
  TGI: > 10 µM
SF-539 CNS
  TGI: > 10 µM
OVCAR-4 ovarian
  TGI: > 10 µM
SK-OV-3 ovarian
  TGI: > 10 µM
786-0 renal
  TGI: > 10 µM
RXF 393 renal
  TGI: > 10 µM
UO-31 renal
  TGI: > 10 µM
SW-620 colon
  TGI: > 10 µM
BT-549 breast
  TGI: > 10 µM
DU-145 prostate
  TGI: > 10 µM
MDA-MB-231 breast
  TGI: > 10 µM
RPMI-8226 leukemia
  TGI: > 10 µM
NCI/ADR-RES ovarian
  TGI: > 10 µM
IGROV1 ovarian
  TGI: > 10 µM
SR leukemia
  TGI: > 10 µM
A549 NSCLC
  TGI: > 10 µM
MALME-3M melanoma
  TGI: > 10 µM
SF-295 CNS
  TGI: > 10 µM
M14 melanoma
  TGI: > 10 µM
NCI-H226 lung
  TGI: > 10 µM
EKVX NSCLC
  TGI: > 10 µM
TK-10 renal
  TGI: > 10 µM
SNB-19 CNS
  TGI: > 10 µM
HOP-62 NSCLC
  TGI: > 10 µM
COLO 205 colon
  TGI: > 10 µM
